According to patent US10208037B2, “Toll-like receptor-7 and -8 modulatory 1H imidazoquinoline derived compounds” (The University of Kansas, priority 2011, dated 2019):

Columns and labels:
Format in all cases: cell-based
TLR8 [1] = target: T1, TLR8 (Homo sapiens, UniProt Q9NR97); assay: TLR8 reporter gene assay, antagonism (CL075 as agonist); details: for IC50: agonist CL075 1 μg/mL, ND = not detected
T1 construct: expressed in transfected cells; host or cells: HEK293 (HEK-Blue-8 cells)
T1 sequence (Q9NR97 27-1041): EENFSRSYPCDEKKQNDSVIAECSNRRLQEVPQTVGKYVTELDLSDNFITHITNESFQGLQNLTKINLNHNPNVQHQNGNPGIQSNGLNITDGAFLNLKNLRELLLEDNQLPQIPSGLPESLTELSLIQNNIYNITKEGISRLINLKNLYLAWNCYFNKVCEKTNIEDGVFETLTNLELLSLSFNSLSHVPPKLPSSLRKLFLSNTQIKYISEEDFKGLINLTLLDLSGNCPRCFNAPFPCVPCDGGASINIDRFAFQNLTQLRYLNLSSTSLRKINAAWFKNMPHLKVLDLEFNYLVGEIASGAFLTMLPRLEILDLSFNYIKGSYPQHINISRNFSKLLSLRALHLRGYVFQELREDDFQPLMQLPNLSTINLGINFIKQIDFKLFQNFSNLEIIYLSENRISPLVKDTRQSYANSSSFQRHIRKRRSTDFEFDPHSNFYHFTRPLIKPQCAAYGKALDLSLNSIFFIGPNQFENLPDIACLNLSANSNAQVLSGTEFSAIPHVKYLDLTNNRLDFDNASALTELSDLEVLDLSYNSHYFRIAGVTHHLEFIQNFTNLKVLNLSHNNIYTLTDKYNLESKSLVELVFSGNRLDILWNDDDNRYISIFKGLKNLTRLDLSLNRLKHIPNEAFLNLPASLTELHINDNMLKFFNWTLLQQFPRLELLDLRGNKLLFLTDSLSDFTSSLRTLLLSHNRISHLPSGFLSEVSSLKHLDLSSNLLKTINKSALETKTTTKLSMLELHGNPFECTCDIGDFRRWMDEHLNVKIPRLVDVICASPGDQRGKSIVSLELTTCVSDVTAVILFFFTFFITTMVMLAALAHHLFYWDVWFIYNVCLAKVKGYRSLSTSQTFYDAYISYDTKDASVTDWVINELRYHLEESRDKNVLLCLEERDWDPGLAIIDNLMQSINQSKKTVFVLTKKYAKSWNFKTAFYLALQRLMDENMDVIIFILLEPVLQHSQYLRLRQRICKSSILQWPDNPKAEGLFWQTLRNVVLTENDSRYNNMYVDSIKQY
From the text: (§1) The induction of NF-κB was quantified using HEK-Blue-3, HEK-Blue-7 and HEK-Blue-8 cells as previously described by us.^8,24,51 HEK293 cells were stably transfected with human TLR3 (or human TLR7 or human TLR8), MD2, and secreted alkaline phosphatase (sAP), and were maintained in HEK-Blue™ Selection medium containing zeocin and normocin. Stable expression of secreted alkaline phosphatase (sAP) under control of NF-κB/AP-1 promoters is inducible by the TLR3 (or TLR7 or TLR8) agonists, and extracellular sAP in the supernatant is proportional to NF-κB induction. HEK-Blue cells were incubated at a density of ˜10^5 cells/ml in a volume of 80 μl/well, in 384-well, flat-bottomed, cell culture-treated microtiter plates until confluency was achieved, and subsequently graded concentrations of stimuli. sAP was assayed spectrophotometrically using an alkaline phosphatase-specific chromogen (present in HEK-detection medium as supplied by the vendor) at 620 nm.
(§2) Antagonism assays were done as described by us earlier^73 using the following agonists at a constant concentration: TLR3 Poly(I:C) (10 ng/mL); TLR7: gardiquimod (1 μg/mL); TLR8: CL075 (1 μg/mL) mixed with graded concentrations of the test compounds.

TLR7 [2] = target: T2, TLR7 (Homo sapiens, UniProt Q9NYK1); assay: TLR7 reporter gene assay, antagonism (gardiquimod as agonist)
T2 construct: expressed in transfected cells; host or cells: HEK293 (HEK-Blue-7 cells)
T2 sequence (Q9NYK1 27-1049): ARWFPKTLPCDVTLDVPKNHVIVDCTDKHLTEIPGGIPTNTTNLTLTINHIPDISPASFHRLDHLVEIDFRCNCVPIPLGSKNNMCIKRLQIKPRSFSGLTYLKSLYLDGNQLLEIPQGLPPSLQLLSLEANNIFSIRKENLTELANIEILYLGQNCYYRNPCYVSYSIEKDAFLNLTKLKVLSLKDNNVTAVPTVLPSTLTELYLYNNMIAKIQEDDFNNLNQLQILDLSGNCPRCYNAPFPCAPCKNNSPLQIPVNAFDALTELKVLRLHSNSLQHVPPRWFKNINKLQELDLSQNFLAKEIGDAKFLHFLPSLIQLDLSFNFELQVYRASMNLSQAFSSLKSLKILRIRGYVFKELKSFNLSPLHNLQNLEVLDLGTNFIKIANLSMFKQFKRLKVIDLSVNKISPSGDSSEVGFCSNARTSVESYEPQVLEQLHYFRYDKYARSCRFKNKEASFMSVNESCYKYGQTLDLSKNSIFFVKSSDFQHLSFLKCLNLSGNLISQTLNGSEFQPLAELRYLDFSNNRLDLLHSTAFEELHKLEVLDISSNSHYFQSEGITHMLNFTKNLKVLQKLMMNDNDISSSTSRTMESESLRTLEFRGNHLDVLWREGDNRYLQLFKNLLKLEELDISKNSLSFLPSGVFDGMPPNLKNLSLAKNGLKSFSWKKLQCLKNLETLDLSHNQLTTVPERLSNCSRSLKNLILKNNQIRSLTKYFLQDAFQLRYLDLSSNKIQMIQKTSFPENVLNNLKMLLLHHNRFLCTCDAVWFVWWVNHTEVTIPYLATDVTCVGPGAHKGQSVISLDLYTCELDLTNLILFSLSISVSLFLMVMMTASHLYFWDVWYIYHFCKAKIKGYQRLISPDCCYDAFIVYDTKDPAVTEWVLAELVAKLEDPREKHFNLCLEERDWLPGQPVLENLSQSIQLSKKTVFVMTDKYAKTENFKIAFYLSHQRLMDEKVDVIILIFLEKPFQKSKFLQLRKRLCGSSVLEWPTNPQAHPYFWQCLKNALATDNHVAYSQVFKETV
From the text: as §1, §2

[3] = tested on: TLR7 and TLR8-induced cytokine and chemokine release; assay: Inhibition of TLR7- and TLR8-mediated cytokine and chemokine production in human PBMCs; details: hPBMCs
Protocol: FIGS. 22A-[…] illustrate inhibition of TLR7-mediated (FIGS. 22A-22D) and TLR8-mediated (FIGS. 22E-[…]) proinflammatory cytokine production in human peripheral blood mononuclear cells by chloroquine or 47a. Proinflammatory cytokines were assayed by cytokine bead array methods after incubation of hPBMCs with graded concentrations of the test compound for 12 h in the presence of 10 μg/ml of either CL075 (TLR8 agonist) or gardiquimod (TLR7 agonist). FIGS. 23A-23D illustrate inhibition of TLR7-mediated (FIGS. 23A-23B) and TLR8-mediated (FIGS. 23C-3D) chemokine production in human peripheral blood mononuclear cells by chloroquine or 47a. Chemokines were assayed by cytokine bead array methods after incubation of hPBMCs with graded concentrations of the test compound for 12 h in the presence of 10 μg/ml of either CL075 (TLR8 agonist) or gardiquimod (TLR7 agonist). Aliquots (10^6 cells in 100 μL) of hPBMCs isolated from blood obtained from healthy human donors after informed consent by conventional Ficoll-Hypaque gradient centrifugation were stimulated for 12 h with graded concentrations of test compounds. The supernatant was isolated by centrifugation, diluted 1:20, and cytokines and chemokines were assayed in triplicate using analyte-specific cytokine/chemokine bead array assays as reported by us previously.^74

TLR7 [4] = target: T2, TLR7; assay: TLR7 reporter gene assay (NF-κB induction, HEK-Blue-7 cells), agonism; details: Table 1; ND = not detected; read-out: TLR7 Agonism
From the text: (§3) NF-κB induction: The induction of NF-κB was quantified using HEK-Blue-7 cells and HEK-Blue-8 cells as previously described by us.^8,24 HEK293 cells were stably transfected with human TLR7 (or human TLR8), MD2, and secreted alkaline phosphatase (sAP), and were maintained in HEK-Blue™ Selection medium containing zeocin and normocin. Stable expression of secreted alkaline phosphatase (sAP) under control of NF-κB/AP-1 promoters is inducible by the TLR7 (or TLR8) agonists, and extracellular sAP in the supernatant is proportional to NF-κB induction. HEK-Blue cells were incubated at a density of […] in a volume of 80 μL/well, in 384-well, flat-bottomed, cell culture-treated microtiter plates until confluency was achieved, and subsequently graded concentrations of stimuli. sAP was assayed spectrophotometrically using an alkaline phosphatase-specific chromogen (present in HEK-detection medium as supplied by the vendor) at 620 nm.
as §1

TLR8 [5] = target: T1, TLR8; assay: TLR8 reporter gene assay (NF-κB induction, HEK-Blue-8 cells), agonism
From the text: as §3, §1

Row | SMILES | TLR8 antagonistic activity (in words) (TLR8 [1]) | IC50 (TLR8 [1]) [µM] | TLR7 antagonistic activity (in words) (TLR7 [2]) | IC50 (TLR7 [2]; agonist gardiquimod 1 μg/mL, ND = not detected) [µM] | EC50 (TLR7 [4]) [µM] | TLR8-agonistic activity (in words) (TLR8 [5]) | Inhibition of TNF-α and IL-1β production (in words) [3]
1 | CCN(CC)CCCC(C)Nc1ccnc2cc(Cl)ccc12 (stereo not shown) [Chloroquine, reference compound] | – | – | – | – | – | – | feeble inhibitor
2 | Nc1nc2ccccc2c2c1nc(CCCCCCc1nc3c(N)nc4ccccc4c3n1Cc1ccccc1)n2Cc1ccccc1 [Compound 49a, 2,2′-(hexane-1,6-diyl)bis(1-benzyl-1H-imidazo[4,5-c]quinolin-4-amine)] | potent antagonistic activity | 10.9 | potent antagonistic activity | – | – | – | –
3 | Nc1nc2ccccc2c2c1nc(CCCCc1nc3c(N)nc4ccccc4c3n1Cc1ccccc1)n2Cc1ccccc1 [Compound 47b, 2,2′-(butane-1,4-diyl)bis(1-benzyl-1H-imidazo[4,5-c]quinolin-4-amine)] | potent antagonistic activity | 15.6 | potent antagonistic activity | – | – | – | –

Now from value to compound, other results behind:

Row | TLR8 antagonistic activity (in words) (TLR8 [1]) | IC50 (TLR8 [1]) [µM] | TLR7 antagonistic activity (in words) (TLR7 [2]) | IC50 (TLR7 [2]; agonist gardiquimod 1 μg/mL, ND = not detected) [µM] | EC50 (TLR7 [4]) [µM] | TLR8-agonistic activity (in words) (TLR8 [5]) | SMILES | Inhibition of TNF-α and IL-1β production (in words) [3]
4 | potent antagonistic activity | 4.65 | potent antagonistic activity | 17.9 | – | – | Nc1nc2ccccc2c2c1nc(CCCCCCCCCCc1nc3c(N)nc4ccccc4c3n1Cc1ccccc1)n2Cc1ccccc1 [Compound 49b, 2,2′-(decane-1,10-diyl)bis(1-benzyl-1H-imidazo[4,5-c]quinolin-4-amine)] | –
5 | – | – | – | – | 5.4 | dual TLR7/TLR8 activity | CCCCc1nc2c(N)nc3ccc(NC(=O)CCCCCCCCCCC(=O)Nc4ccc5nc(N)c6nc(CCCC)n(Cc7ccc(CN)cc7)c6c5c4)cc3c2n1Cc1ccc(CN)cc1 [Compound 55c, N^1,N^12-bis(4-amino-1-(4-(aminomethyl)benzyl)-2-butyl-1H-imidazo[4,5-c]quinolin-8-yl) dodecanediamide] | –
